The text below walks through data of patent US20110117554A1, “Formamide-containing mixtures for detecting nucleic acids” (priority 2009, published 2011).

The nature of the data set: Melting temperatures of 20mer nucleic acid duplexes in formamide-water mixtures. It is filed as physicochemical. Particulars: for Melting Temperatures in Formamide: 1.5 μM single strand, 100 mM NaCl, 10 mM K-phosphate pH 7, 0.1 mM EDTA. The protocol:
A mismatch in 50% formamide in the DNA strand lowers the melting temperature of the duplex containing LNA-8 from 72 to 66 to 62° C.
As the results in the Tables show, useful melting temperatures are obtained when the oligonucleotides bound in duplex contain at least 15 nucleotide units that have 2′-OMe ribonucleotides as their building blocks. Comparably useful melting temperatures are obtained when the oligonucleotides contain locked nucleic acid (LNA) carbohydrate analogs, as described in [Koshkin et al., 1998]. The data in the Tables also makes clear that the binding between two complementary DNA strands of this length is not useful in 50% formamide, as it is below 30° C. at 50% formamide.

On to “DNA:DNA: 20mer DNA duplex of strand-1 5′-CTTCAGGTACTGAGTCAAGC-3′ (SEQ ID NO 3) and strand-2 (SEQ ID NO 4) (chain 1 CTTCAGGTACTGAGTCAAGC; chain 2 GCTTGACTCAGTACCTGAAG; DNA, backbone and methylation of C not given here)”, for which the “Tm (Stability of Duplexes in Formamide and Water)” value reads like this: (0 % formamide (Table 3)) 61 °C; (25 % formamide (Table 3)) 44 °C; (50 % formamide (Table 3)) 28 °C; (70 % formamide (Table 3)) <20 °C; (70 % formamide (Table 3), listed as model 20 mer) ≤ 20 °C. Also, the “Melting Temperatures in Formamide” value reads like this: (0 percent formamide) 62 °C; (25 percent formamide) 46 °C; (50 percent formamide) 29 °C.
Take “RNA:RNA: 20mer RNA duplex 5′-CUUCAGGUACUGAGUCAAGC-3′ (SEQ ID NO 1) with 3′-GAAGUCCAUGACUCAGUUCG-5′ (SEQ ID NO 2) (chain 2 GCUUGACUCAGUACCUGAAG; RNA, backbone not given here)”: the “Tm (Stability of Duplexes in Formamide and Water)” value runs as follows: (0 % formamide (Table 3)) 73 °C; (25 % formamide (Table 3)) 60 °C; (50 % formamide (Table 3)) 48 °C; (70 % formamide (Table 3)) 40 °C; (90 % formamide (Table 3)) <25 °C. Also, the “Melting Temperatures in Formamide” value (0 percent formamide) is 73 °C, the “Melting Temperatures in Formamide” value (25 percent formamide) came out at 61 °C and the “Melting Temperatures in Formamide” value (50 percent formamide) amounted to 49 °C.
